From ChEMBL document CHEMBL3097990, “Probing the Binding Site of Bile Acids in TGR5” (ACS Med Chem Lett, 2013) come the findings set out here.

The structures appear in SMILES notation.

The target in test [1] is T1, G-protein coupled bile acid receptor 1 (Homo sapiens, UniProt Q8TDU6).
T1 sequence (Q8TDU6 whole entry): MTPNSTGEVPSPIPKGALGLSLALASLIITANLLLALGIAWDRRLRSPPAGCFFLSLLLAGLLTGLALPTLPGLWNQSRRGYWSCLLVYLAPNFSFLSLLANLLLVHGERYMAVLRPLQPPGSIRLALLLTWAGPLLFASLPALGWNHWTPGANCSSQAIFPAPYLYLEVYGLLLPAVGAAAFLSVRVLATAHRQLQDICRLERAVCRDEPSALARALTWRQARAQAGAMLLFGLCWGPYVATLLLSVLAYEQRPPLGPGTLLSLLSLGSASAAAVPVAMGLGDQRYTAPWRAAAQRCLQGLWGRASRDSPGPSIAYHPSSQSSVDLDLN
In words: Agonist activity at wild type TGR5 (unknown origin).

The species named for test [2] is Homo sapiens. Nature of the test: Selectivity ratio of EC50 for TGR5 S270A mutant (unknown origin) to EC50 for wild type TGR5 (unknown origin).
The species named for test [3] is Homo sapiens. In words: Selectivity ratio of EC50 for TGR5 Y89F mutant (unknown origin) to EC50 for wild type TGR5 (unknown origin).
The species named for test [4] is Homo sapiens. Nature of the test: Selectivity ratio of EC50 for TGR5 Y89A mutant (unknown origin) to EC50 for wild type TGR5 (unknown origin).
Test [5] is filed under the species Homo sapiens. In words: Selectivity ratio of EC50 for TGR5 N93D mutant (unknown origin) to EC50 for wild type TGR5 (unknown origin).

By EC50 is commonly meant the concentration needed to bring the measured effect to its halfway point. Read a low EC50 as a more potent agent. `CC[C@H]1[C@@H](O)[C@@H]2[C@H](CC[C@]3(C)[C@@H]([C@H](C)CCN)CC[C@@H]23)[C@@]2(C)CC[C@@H](O)C[C@@H]12` returned a half-maximal effective concentration (EC50) in test [1] of 1320 nM. Also, the Ratio EC50 was greater than 1000 in the test listed under Homo sapiens [2], 1.7 in the test filed under Homo sapiens [3], greater than 1000 in the test listed under Homo sapiens [4] and greater than 1000 in the test listed under Homo sapiens [5].
